Read-outs that look alike come from different tables or passages of the source.
Tests used:
[1] = target: T1, human Bisphosphoglycerate mutase (hBPGM) (Homo sapiens, UniProt P07738); experiment: BPGM phosphatase assay; format: biochemical
T1 sequence (P07738 1-259): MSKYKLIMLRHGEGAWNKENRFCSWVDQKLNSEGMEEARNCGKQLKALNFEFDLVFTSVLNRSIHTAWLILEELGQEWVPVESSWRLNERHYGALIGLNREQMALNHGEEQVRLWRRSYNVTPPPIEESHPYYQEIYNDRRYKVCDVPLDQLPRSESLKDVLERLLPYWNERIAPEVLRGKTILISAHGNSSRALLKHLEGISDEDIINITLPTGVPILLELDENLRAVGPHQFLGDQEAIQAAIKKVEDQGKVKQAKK
Experimental: The following materials were used in this assay: Tris buffer (50 mM Tris, 0.01% Tween 20, pH 7.4); cyclohexylammonium salt of 2,3-BPG (stock solution of 500 mM in ultapure distilled water; human Bisphosphoglycerate mutase (hBPGM; stock solution of 110 μM in Standard Buffer); 3-Phosphoglyceric acid (3-PG; stock solution of 100 mM in ultrapure distilled water); 384-Well Polystyrene Plates (Fisherbrand™, Catalog No.: 12-566-625); BIOMOL GREEN REAGENT (Enzo life sciences, BML-AK111-0250); and 1 mM DMSO stock of exemplary compounds.
A 3-PG enzyme mix solution (final enzyme concentration 62.5 nM, 3-PG concentration at 50 µM, 14.5 uL) was added to onto a 384-well clear plate. Solutions of the test compounds were then added to the plate and the DMSO content was normalized across the plate. The plate was incubated at RT for 15 min. Next, the substrate 2,3-BPG (5 μL) was added to all the wells, and the plate was sealed and incubated for 24 hr at RT. After incubation, BIOMOL green dye (40 μL) was added to all the wells, the plate was shaken to mix, and the plate was incubated at RT for 20-30 min. Absorbance measurements were recorded at 620 nm.

hBPGM = target: T2, hBPGM (Homo sapiens, UniProt P07738); experiment: BPGM synthase assay; format: biochemical
T2 sequence (P07738 1-259): T1 sequence (P07738 1-259)
Method in brief: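 The enzyme solution held 5 nM BPGM with 0.4 U/mL coupling GAPDH in Tris pH 7.4, 3.23 mM KH2PO4, 1 mM DTT, and compounds were pre-incubated 30 min at RT. Substrate solution (2 mM NAD, 20 μM 3PG, 800 μM GAP) reacted 60 min before a koningic acid quench. NADH fluorescence (360/460) and diaphorase/resazurin-derived resorufin (544/590) were read.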

human red blood cells = experiment: Human cell-based assay (2,3-BPG, ATP by LC/MS); conditions: Erythrocyte, whole blood suspension, 37° C., 24 h, read-out: hRBC EC50
Experimental: The following materials were used in this assay: DMSO; Hemox buffer (30 mM TES, 135 mM NaCl, 5 mM KCl, pH 7.4); Inosine (100 mM in hemox buffer); Glucose (1 M in water); human red blood cells; LC/MS Optima grade methanol; LC/MS Optima grade water; and Incubation buffer (30 mM TES, 135 mM NaCl, 5 mM KCl, 50 mM inosine, 20 mM glucose pH 7.4).
Test compounds were loaded onto a 96-well plate (final concentration of DMSO was 1%). 10 mL whole blood was resuspended with an equivalent amount of 2× incubation buffer to make 25% het & 50% plasma solution. The final solution contains 10 mM glucose and 25 mM inosine. The blood suspension (100 uL) was added to the wells of the plate. The plate was covered with an adhesive foil cover and plastic lid, and incubated at 37° C. for 24 h. The samples were extracted through an SPE column and the metabolites (2,3-BPG, ATP) were analyzed by LC/MS.

[2] = Table 6, read-out: huBPGM: phosphatase Enzyme EC50
[3] = Table 6, read-out: huBPGM: synthase Enzyme IC50
[4] = Table 4, read-out: hBPGM Phosphatase EC50
[5] = Table 3, read-out: hBPGM Synthase IC50

Row | EC50 [1, 2] | IC50 (hBPGM; [3]) | EC50 [1, 4] | IC50 (hBPGM; [5]) | EC50 (human red blood cells) | Structure (SMILES)
1 | 3.6 µM | 6.1 µM | – | – | – | COC(=O)NCc1nc(C)c(-c2csc(-c3ccc(O)c(F)c3)n2)s1 [Example 203]
2 | 0.44 µM | 0.34 µM | – | – | – | COC(=O)NCc1nc(C)c(-c2csc(-c3ccc(-c4nnn[nH]4)cc3)n2)s1 [Example 205]
3 | 1.2 µM | 1.4 µM | – | – | – | COC(=O)NCc1nc(C)c(-c2csc(-c3ccc(C(=O)NS(C)(=O)=O)c(O)c3)n2)s1 [Example 206]
4 | 8.2 µM | 6.5 µM | – | – | – | COC(=O)NCc1nc(C)c(-c2csc(-c3ccc(C(=O)Nc4nnn[nH]4)cc3)n2)s1 [Example 207]
5 | 16 µM | 3.1 µM | – | – | – | COC(=O)NCc1nc(C)c(-c2csc(-c3ccc(C(=O)NS(C)(=O)=O)cc3)n2)s1 [Example 208]
6 | 0.06 µM | 0.16 µM | – | – | – | COC(=O)NCc1nc(C)c(-c2csc(-c3ccc(-c4nnn[nH]4)c(O)c3)n2)s1 [Example 213]
7 | 0.096 µM | 0.18 µM | – | – | – | COC(=O)NCc1nc(C)c(-c2csc(-c3cc(F)c4[nH]nnc4c3)n2)s1 [Example 214]
8 | 0.04 µM | 0.017 µM | 0.04 µM | – | – | Cc1cnc(OCc2nc(C)c(-c3cccc(-c4cc(F)c5nn[nH]c5c4F)n3)s2)nc1 [compound 8]
9 | 0.31 µM | 0.13 µM | 0.31 µM | – | – | Cc1nc(COc2ncccn2)sc1-c1csc(-c2cc(F)c(O)c(F)c2F)n1 [compound 10]
10 | 0.19 µM | 0.51 µM | 0.19 µM | 0.511 µM | – | Cc1nc(COc2ccccn2)sc1-c1csc(-c2cc(F)c(O)c(F)c2F)n1 [compound 11]
11 | 0.032 µM | 0.17 µM | 0.055 µM | 0.169 µM | – | COC(=O)NCc1nc(C)c(-c2csc(-c3ccc(C(=O)NS(=O)(=O)c4ccccc4)cc3)n2)s1 [compound 13]
12 | – | – | 0.57 µM | 1.01 µM | – | Cc1nc(COc2ncccn2)sc1-c1cccc(-c2ccc3nn[nH]c3c2)n1 [compound 14]
13 | 0.17 µM | 0.14 µM | 0.17 µM | – | – | Cc1nc(COc2ncccn2)sc1-c1cccc(-c2ccc(-c3noc(=O)[nH]3)cc2)n1 [compound 15]
14 | – | – | – | – | 22.5 µM | COC(=O)NCc1nc(C)c(-c2csc(-c3cc(F)c4[nH]nnc4c3F)n2)s1 [compound 16]

— patent publication US20230348454A1, “COMPOUNDS AS MODULATORS OF BIS-PHOSPHOGLYCERATE MUTASE FOR THE TREATMENT OF SICKLE CELL DISEASE” (Genzyme Corporation, priority 2020, published 2023)
